Experimental findings from PubChem BioAssay (NCI) are described below.

Converted amounts (≈) assume the structure as drawn.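 Values below derive from 48-hour exposures of cells grown in 96-well plates, with endpoints linearly interpolated between the two concentrations bracketing the appropriate inhibition level. At the GI50, growth is halved. At the TGI there is no net growth.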

Holding throughout (experiment): NCI anticancer screen, dose series, 48 h
Assay [1] has as its system CAKI-1 renal.
Assay [2] deals with EKVX NSCLC.
Assay [3] deals with HCT-116 colon.
The test system of assay [4] is HOP-62 NSCLC.
The subject of assay [5] is HOP-92 NSCLC.
The test system of assay [6] is K-562 leukemia.
Assay [7] has as its system NCI-H522 lung.
The test system of assay [8] is OVCAR-4 ovarian.
Assay [9] concerns SF-539 CNS.
The subject of assay [10] is MDA-N.

Consider `CSc1ccc2c(cc1=O)[C@@H](NC(=O)c1ccc(F)cc1)CCc1cc(O)c(O)c(O)c1-2`, for which the TGI in assay [1], in assay [2], in [3], in assay [4], in assay [5] and in assay [6] was above 100 µM throughout. Further, the TGI in assay [7], in [8] and in assay [9] was above 100 µM throughout.
Consider `Cc1nc2c(ncn2CCO)c(=O)[nH]1`, for which the TGI in assay [1], in [2], in [3], in [4], in assay [6] and in [10] was above 100 µM throughout. The TGI in assay [7], in [8] and in assay [9] was above 100 µM throughout.
As to `CC(C)(C)NC1C2CCC(C)(C1O)C2(C)C` (configuration not stated), the TGI in assay [1], in assay [2], in assay [3], in assay [4], in assay [6] and in [8] was above 100 µM in each case. For the same compound, the TGI in assay [9] is above 100 µM.
As to `O=C(Nc1c(Cl)cc([N+](=O)[O-])cc1Cl)/C(=N\Nc1cccc(Cl)c1)c1c(O)c2ccccc2oc1=O`, the TGI in assay [2], in assay [3], in [4], in assay [6], in assay [7] and in assay [8] was above 100 µM throughout. The compound further yielded a TGI in assay [9] above 100 µM.
Consider `COc1ccc([C@@H]2CC(=O)NCCCCNCCCN2)cc1`, for which the TGI in assay [1], in assay [2], in assay [3], in [4], in assay [5] and in assay [6] was above 100 µM each time. For the same compound, the TGI in assay [7], in assay [8] and in assay [9] was above 100 µM in each case.
Take `COc1cc([C@@H]2c3cc4c(c(O)c3C[C@H]3COC(=O)[C@@H]32)OCO4)cc(OC)c1O`: the GI50 was 0.00611 µM in assay [1]; 0.0039 µM in [3]; 0.00487 µM in [4]; 0.00576 µM in [5]; 0.00312 µM in [6]. The TGI is below 0.02 µM in assay [1]; above 92.8 µM in assay [2]; above 20 µM in assay [3]; above 200 µM in assay [4]; 0.113 µM in [5]; above 50.2 µM in assay [6]. This compound came in with a TGI in [8] above 200 µM.
In the case of `CN1OC2OC(=O)OC2[C@H]1[C@H]1O[C@H](c2ccccc2)OC1(C)c1cc(OC(=O)c2ccccc2)ccc1OC(=O)c1ccccc1` (some centres not stated), the TGI in [1], in [2], in assay [3], in assay [4], in assay [5] and in [6] was above 50 µM each time. The TGI in assay [7], in [8] and in [9] was above 50 µM throughout.
On to `CC(=O)NC(CCCCNC(=O)N(C)N=O)C(=O)NCc1ccccc1` (configuration not stated), for which the TGI in assay [1], in assay [2], in assay [3], in assay [4], in [5] and in [6] was above 100 µM in each case. For the same compound, the TGI in [7], in assay [8] and in assay [9] was above 100 µM in each case.
Take `Cc1cc(NCCCCCCNc2cc(C)nc3ccc(Cl)cc23)c2cc(Cl)ccc2n1`: the TGI is above 100 µM in assay [1]; 30.4 µM in assay [2]; 30.8 µM in assay [3]; above 100 µM in [4]; 18.4 µM in [6]; 30.7 µM in assay [7]. The TGI in assay [8] turned out to be 34.8 µM; in [9], 29.4 µM.
Consider `Nc1ccc(N)c2c1C(=O)c1c(N)ccc(N)c1C2=O`, for which the TGI in assay [1] was above 100 µM; in assay [2] it was above 100 µM; in [3], above 100 µM; in [4] it was above 100 µM; in assay [5], above 92.3 µM; in assay [6], above 100 µM. The TGI is above 89.3 µM in assay [7], 97.4 µM in [8] and above 88.8 µM in assay [9].
As for `O=C(CSc1nnc(-c2ccc(N=Cc3ccc(Cl)cc3)cc2)o1)Nc1cccc(Cl)c1`, the TGI in [2], in assay [3], in assay [4], in [6], in assay [7] and in [8] was above 100 µM throughout.
In the case of `S=C(Nc1ccccc1)N1N=C2c3ccccc3CC[C@H]2[C@@H]1c1ccccc1`, the TGI in assay [2] was above 100 µM; in [3] it was above 100 µM; in assay [4], above 100 µM; in assay [7], 4.12 µM; in assay [8], above 100 µM; in assay [9], above 100 µM.
As for `COc1cc(OC)nc(Nc2c(C#N)c3nc4ccccc4n3c3ccccc23)n1`, the TGI in assay [1] is above 100 µM; in [2] it was above 100 µM; in assay [3], above 100 µM; in assay [4], 35 µM; in assay [6] it was above 100 µM; in assay [10], above 100 µM. In addition, the TGI turned out to be 64 µM in assay [7], 78.7 µM in assay [8] and 35.1 µM in assay [9].
With `CP(C)(=S)P(C)(C)=S`, the TGI in assay [1], in assay [2], in assay [3], in assay [4], in assay [6] and in [10] was above 100 µM each time. Moreover, the TGI in assay [7], in assay [8] and in assay [9] was above 100 µM throughout.
Take `NC(N)=Nc1nc2ccccc2[nH]1`: the GI50 in assay [1] was 48.8 mg/L; in assay [2], 57.4 mg/L (≈ 328 µM); in assay [3], 49.3 mg/L; in assay [4], 43.4 mg/L; in assay [5], 103 mg/L; in assay [6] it was 27.6 mg/L. In addition, the GI50 in assay [7] is 5.66 mg/L (≈ 32.3 µM); in assay [8], 22.1 mg/L (≈ 126 µM); in assay [9] it was 33.7 mg/L (≈ 192 µM). Further, the TGI was above 150 mg/L in [1]; above 150 mg/L in assay [2]; above 150 mg/L in assay [3]; 124 mg/L in assay [4]; above 150 mg/L in assay [5]; above 150 mg/L in [6]. The TGI was 46.5 mg/L in assay [7], 55.5 mg/L in assay [8] and above 150 mg/L in [9].
Consider `CC[C@]12C=CCN3CCC4(c5cc([C@@]6(C(=O)OC)CC7CN(CCc8c6[nH]c6ccccc86)C[C@@H]6CCC[C@H]76)c(OC)cc5N(C)C4[C@](O)(C(=O)OC)C1OC(C)=O)C32` (some centres not stated), for which the TGI is above 10 µM in assay [1]; above 3.86 µM in [2]; 3.64 µM in [3]; 1.31 µM in [4]; above 10 µM in [5]; above 10 µM in [6]. Besides, the TGI is 0.113 µM in assay [7], above 8.93 µM in assay [8] and 0.574 µM in [9].
With `CC1(C)C2CCC1(CC(=O)O)C(Cl)C2` (configuration not stated), the TGI in assay [1], in [2], in assay [3], in assay [4], in assay [6] and in assay [7] was above 100 µM throughout. Further, the TGI in assay [8] and in assay [9] was above 100 µM in each case.
Take `OCSc1nn(CO)c(=S)s1`: the TGI in [1] is above 100 µM; in assay [2] it was 89.3 µM; in [3], 55.4 µM; in assay [4], 45.2 µM; in assay [5] it was 41.7 µM; in [6], 43.4 µM. Moreover, the TGI in assay [7] was 35.3 µM; in assay [8], 47 µM; in [9] it was 56.8 µM.
Take `CCNCCNC(=O)c1ccc(Br)cc1`: the TGI in assay [1], in [2], in assay [5], in assay [6], in [8] and in assay [9] was above 100 µM each time.
With `CCOC(=O)/C=C/c1ccccn1`, the TGI in assay [1], in assay [2], in assay [3], in assay [4], in [5] and in assay [6] was above 100 µM each time. Further, the TGI in [7], in assay [8] and in [9] was above 100 µM each time.
For the compound `N#Cc1c2nc3ccccc3nc2n2ccc3ccccc3c12`, the TGI in [2], in [3], in [5], in assay [6], in [7] and in assay [8] was above 100 µM in each case. For the same compound, the TGI in assay [9] was above 100 µM.
`C/C(=N/N)c1ccc2[nH]c3c(C)cc([N+](=O)[O-])c(C)c3c2c1`: the TGI turned out to be 66.1 µM in assay [2]; 17.8 µM in assay [3]; 20.9 µM in [4]; 40.7 µM in assay [6]; 36.7 µM in [7]; 38.3 µM in assay [8]. Besides, in assay [9], the TGI was 29.3 µM.
On to `COc1cc(C=O)c(-c2cc3c(cc2C=O)OCO3)c(OC)c1OC`, for which the TGI was above 290 µM in assay [1]; above 290 µM in assay [2]; 131 µM in assay [3]; above 290 µM in assay [4]; 241 µM in assay [5]; above 290 µM in assay [6]. The TGI was determined as 119 µM in [7] and 188 µM in assay [9].
As for `Cc1cc(-c2ccccc2)cc2[n+]1CC=C2`, the TGI in [1] was above 100 µM; in assay [2] it was above 100 µM; in assay [3], above 100 µM; in assay [4] it was above 100 µM; in assay [5] it was 94.8 µM; in assay [7], above 100 µM. Moreover, the TGI in assay [8] and in [9] was above 100 µM each time.
As for `NC(CCCCNC(=O)C(Cc1ccccc1)NC(=O)OCc1ccccc1)C(=O)NC(CCCCNC(=O)C(Cc1ccccc1)NC(=O)OCc1ccccc1)C(=O)NC(CCCCNC(=O)C(Cc1ccccc1)NC(=O)OCc1ccccc1)C(=O)NC(CCCCNC(=O)C(Cc1ccccc1)NC(=O)OCc1ccccc1)C(=O)NC(CCCCNC(=O)C(Cc1ccccc1)NC(=O)OCc1ccccc1)C(=O)NC(CCCCNC(=O)C(Cc1ccccc1)NC(=O)OCc1ccccc1)C(=O)O` (configuration not stated), the TGI in [1], in [3], in assay [4], in assay [6], in [10] and in assay [7] was above 100 µM in each case. Moreover, the TGI in assay [8] was above 100 µM.
As for `Cc1cc2[nH]c3c(C#N)c(-c4ccccc4)c(CN4CCOCC4)c(=O)n3c2cc1C`, the TGI in assay [1], in assay [2], in assay [3], in assay [4], in assay [10] and in [7] was above 100 µM in each case. For the same compound, the TGI in [8] and in assay [9] was above 100 µM throughout.
As to `O=C(c1ccccc1)c1c(CNCc2ccccc2)n(C(=O)c2ccccc2)c2ccccc12`, the TGI in assay [1] was above 100 µM; in assay [3] it was above 100 µM; in assay [4], above 100 µM; in [5], 82.1 µM; in [6], above 100 µM; in [7], 81.8 µM. In addition, the TGI in assay [8] and in assay [9] was above 100 µM each time.
In the case of `CCCCP(CCCC)(CCCC)=C(C(=O)OC)C(C(=O)OC)=C1SC(C(=O)OC)=C(C(=O)OC)S1`, the TGI in assay [2] was 68.5 µM; in assay [3] it was 31.9 µM; in assay [4], 49.3 µM; in [7], 49.6 µM; in assay [8] it was 52.5 µM.
On to `C/C(=N\Nc1nc2ccccc2o1)c1ccncn1`, for which the TGI in [1] was 42.6 µM; in [2], above 100 µM; in assay [3] it was above 33.6 µM; in assay [4], above 68.7 µM; in assay [5], 6.05 µM; in assay [6] it was above 100 µM. Also, the TGI was above 32.7 µM in [7], above 100 µM in assay [8] and above 100 µM in assay [9].
As for `CC1=NN(C(=O)Cc2ccccc2)C(=O)/C1=C\c1ccco1`, the TGI in assay [1], in assay [2], in [3], in assay [4], in [6] and in [7] was above 100 µM throughout. Besides, the TGI in assay [8] and in [9] was above 100 µM in each case.
